Reference: patent publication US20080255079A1, “Therapeutic Use of Nefopam and Analogues Thereof” (priority 2005, published 2008)
Counter-ions that a name gives are not always drawn. Marks after values point to notes of the source that are not given here.

How the values were obtained:
[1] = test system: mice exposed to marbles (marble burying); assay: Marble Burying Test in mouse; type: in vivo; conditions: for Number of marbles buried (% change from ctrl): 30 min before test; for antidepressant and anxiolytic activity (in words): ip
Description: Nefopam and (+)-nefopam have been evaluated in the Marble Burying Test, a model which detects anxiolytic/tranquillizing activity. The method follows that described by Broekkamp et al. (1986—Eur. J. Pharmacol., 126, 223-229). Mice exposed to novel object (marbles) will bury them in the sawdust floor covering. Anxiolytics decrease the number of marbles buried at non-sedative doses.
Mice are individually placed in transparent plastic cages (33×21×18 cm) with 5 cm of sawdust on the floor, and 25 marbles grouped in the centre of the cage. The cage is covered with an inverted plastic cage. Each test cage, together with the marbles, is impregnated with mouse odor beforehand, by leaving 10 mice in the cage for 15 minutes. These mice then play no further role in the experiment. The number of marbles covered by sawdust (⅔ or more) is counted at the end of a 30 minute test.
All compounds were administered i.p. 30 minutes before the test, and compared with a vehicle control group. Clobazam (8 mg/kg i.p.), administered under the same experimental conditions, was used as reference substance.

[2] = test system: formalin-induced paw licking model in mice; assay: Formalin-induced hyperalgesia (paw licking) in mouse; type: in vivo; conditions: for Nociception, hindpaw licking time, early phase: early phase (0-5 min after formalin); for Nociception, hindpaw licking time, early phase / Nociception, hindpaw licking time, late phase: 60 min before formalin, vs vehicle; for Nociception, hindpaw licking time, late phase: late phase (20-30 min after formalin); for licking behaviour compared to vehicle control, first phase (in words): first phase (acute nociceptive pain), at both 60 and 100 mg/kg; for paw licking time compared to vehicle control (in words): po, both phases; for licking behaviour, second phase (in words): second phase (persistent pain states), 100 mg/kg
Experimental: Nefopam and (+)-nefopam have been evaluated in the formalin-induced paw licking model in mice. […] The late phase seems to be an inflammatory response and is a recognized model of persistent pain. This test may, therefore, be a useful indicator of analgesic efficacy in fibromyalgia. Compounds were evaluated for both an early stage response and a late stage response and compared against morphine as control.
Inflammation was induced by subplantar injection of a 5% formalin solution (0.02 ml) into the mouse right hindpaw (20-25 g male Rj: NMRI). Hindpaw licking time was continuously recorded in a blinded fashion between 0 to 5 minutes (early phase) and between 20 to 30 minutes (late phase) after formalin injection (Hunskaar etal., 1985—J. Neurosci. Methods; 14:69-76).
The test substances and vehicle were orally administered 60 min before formalin injection.

[3] = test system: mice forced to swim (duration of immobility); assay: Behavioural Despair Test in mouse; type: in vivo; conditions: for Duration of Immobility (% change from ctrl): 30 min before test; for anti-depressant activity (in words): ip
Experimental: Nefopam and (+)-nefopam have been evaluated in the Behavioural Despair Test, a model which detects antidepressant activity. This test was conducted according to the method of Porsolt et al., (1977—Arch. Int. Pharmacodyn., 229:327-336), in which mice are forced to swim in a situation from which they cannot escape rapidly become immobile. Antidepressants decrease the duration of immobility.
Mice (20-27 g male Rj: NMRI) were individually placed in a cylinder (height=24 cm, diameter=13 cm) containing 10 cm water (22° C.) from which they cannot escape. The mice were placed in the water for 6 minutes and the duration of immobility during the last 4 minutes was measured. All compounds were administered i.p. 30 minutes before the test, and compared with a vehicle control group. Imipramine (32 mg/kg i.p.), administered under the same experimental conditions, was used as reference substance.

[4] = conventional release preparations; cited from earlier work

| SMILES | Nociception, hindpaw licking time, early phase ([2]; 30 mg/kg po) | Nociception, hindpaw licking time, early phase ([2]; 60 mg/kg po) | Nociception, hindpaw licking time, early phase ([2]; 100 mg/kg po) | licking behaviour compared to vehicle control, first phase (in words) [2] | Nociception, hindpaw licking time, late phase ([2]; 30 mg/kg po) | Nociception, hindpaw licking time, late phase ([2]; 60 mg/kg po) | Nociception, hindpaw licking time, late phase ([2]; 100 mg/kg po) | paw licking time compared to vehicle control (in words) [2] | licking behaviour, second phase (in words) [2] | Duration of Immobility (% change from ctrl) ([3]; 20 mg/kg ip) | Duration of Immobility (% change from ctrl) ([3]; 40 mg/kg ip) | Duration of Immobility (% change from ctrl) ([3]; 60 mg/kg ip) | anti-depressant activity (in words) [3] | Number of marbles buried (% change from ctrl) ([1]; 10 mg/kg ip) | Number of marbles buried (% change from ctrl) ([1]; 20 mg/kg ip) | Number of marbles buried (% change from ctrl) ([1]; 40 mg/kg ip) | antidepressant and anxiolytic activity (in words) [1] | further results |
| --- | --- | --- | --- | --- | --- | --- | --- | --- | --- | --- | --- | --- | --- | --- | --- | --- | --- | --- |
| CN1C(=O)CC(=O)N(c2ccccc2)c2cc(Cl)ccc21 [Clobazam] |  |  |  |  |  |  |  |  |  |  |  |  |  |  |  |  |  | Number of marbles buried (% change from ctrl) ([1]; 32 mg/kg ip): −75 * % change from ctrl |
| CN1CC[C@]23c4c5ccc(O)c4O[C@H]2[C@@H](O)C=C[C@H]3[C@H]1C5 [Morphine] |  |  |  |  |  |  |  |  |  |  |  |  |  |  |  |  |  | Nociception, hindpaw licking time, early phase ([2]; 80 mg/kg po): −98%*; Nociception, hindpaw licking time, late phase ([2]; 80 mg/kg po): −98%* |
| CN1CCO[C@@H](c2ccccc2)c2ccccc2C1 [(+)-Nefopam] | −40% | −59%* | −86%* | significant reduction in licking behaviour | −31% | −69% | −90%* | dose-dependently decreased paw licking time | significant reduction in licking behaviour | −38 % change from ctrl | −92 * % change from ctrl | −100 * % change from ctrl | significant anti-depressant activity | −56 * % change from ctrl | −99 * % change from ctrl | −100 * % change from ctrl | significant antidepressant and anxiolytic activity |  |
| CN1CCOC(c2ccccc2)c2ccccc2C1 (racemic) [Nefopam, 5-methyl-1-phenyl-3,4,5,6-tetrahydro-1H-2,5-benzoxazocine hydrochloride] | −28% | −64%* | −85%* | significant reduction in licking behaviour | −41% | −63%* | −89%* | dose-dependently decreased paw licking time | significant reduction in licking behaviour | −42 % change from ctrl | −85 * % change from ctrl | −100 * % change from ctrl | significant anti-depressant activity | −66 * % change from ctrl | −98 * % change from ctrl | −100 * % change from ctrl | significant antidepressant and anxiolytic activity | elimination half-life [4]: four |
| CN(C)CCCN1c2ccccc2CCc2ccccc21 [Imipramine] |  |  |  |  |  |  |  |  |  |  |  |  |  |  |  |  |  | Duration of Immobility (% change from ctrl) ([3]; 32 mg/kg ip): −80 * % change from ctrl |
